Legend:
ICR mice [1] = experiment: Effect on PPE-induced inflammation (3), cytokine and chemokines in BALF by ELISA (Test Example 4.3); assay type: in vivo; conditions: 38 μg/kg via the airway, PPE 20 U/kg, FIGS. 11 to 14
Method: The levels of cytokine and chemokine in broncho alveolar lavage fluid (BALF) were measured as indications of an effect on PPE-induced inflammation.
Specifically, TNF-α ([…]), which is a pro-inflammatory cytokine, was measured as a cytokine that is an inflammatory factor and a macrophage inflammatory protein (MIP-2), a monocyte chemotactic protein (MCP-1), and a keratinocyte-derived chemokine (KC) were measured as an inflammatory chemokine.
The measurement of such a cytokine and chemokines in the BALF was performed by ELISA.

ICR mice [2] = experiment: Effect on porcine pancreatic elastase (PPE)-induced inflammation (1) (Test Example 4.1); assay type: in vivo; conditions: 38 μg/kg via the airway once, PPE 100 μg per mouse 1 h later, BALF 24 h after PPE, FIG. 8
Method: Then, broncho alveolar lavage fluid (BALF) was collected from the lung 24 hours after administration of porcine pancreatic elastase and a total cell count and a neutrophil count were measured.

ICR mice [3] = experiment: Effect on porcine pancreatic elastase (PPE)-induced inflammation (2) (Test Example 4.2); assay type: in vivo; conditions: 7.5 μg/kg and 38 μg/kg via the airway once, PPE 20 U/kg 1 h later, BALF 6 h after PPE; for Total cell count in BALF: FIG. 9; for Neutrophil count in BALF: FIG. 10
Method: Then, broncho alveolar lavage fluid (BALF) was collected from the lung 6 hours after administration of porcine pancreatic elastase. The BALF was collected by washing the lung twice with saline containing heparin (50 U/mL) with the aid of a tracheostomy tube.
A total cell count of the collected BALF was measured by hemocytometer. The cells were centrifuged by using Cytospin 4 (registered trademark, manufactured by Thermo Electron Corporation) and then fixed with Diff-Quik reagent, and the neutrophil count was determined on the basis of the ratio of the neutrophil count to the total cell count.

[4] = target: T1, human M3 muscarinic receptor (Homo sapiens, UniProt P20309); experiment: Receptor binding ability (in vitro) (1), [3H]NMS competitive inhibition (Test Example 2.1); conditions: CHO-K1 membrane fraction, 2.0 nM [3H]NMS
T1 construct: expressed in transfected cells; host or cells: CHO-K1 cells (membrane fraction)
Method: Nonspecific binding was measured in the presence of 1 μM atropine.
The resulting filter, which was dried and a solid scintillator, MeltiLex A (manufactured by PerkinElmer, Inc.) was melted thereon, was measured and quantified by using a β-counter (MicroBeta microplate scintillation counter (Trilux: manufactured by PerkinElmer, Inc.).

ICR mice [5] = experiment: Fecal pellet output (level of constipation occurrence) after application of stress (Test Example 5); assay type: in vivo; conditions: 4.7 mg/kg intratracheally, 1 h later one-hour restraint stress, FIG. 15
Method: 4 to 6 week old ICR mice were put under stress by placing the mice in a 50 mL tube for one hour, the tube ensuring free breathing but restraining free movement, and the fecal pellet output (the level of constipation occurrence) at that time was measured.
The level of constipation occurrence was monitored by measuring the fecal pellet output during the above-mentioned period.

ICR mice [6] = experiment: Effect on methacholine-induced airway constriction (1) (Test Example 3.1); assay type: in vivo; conditions: 3.75 μg/kg via the airway, 1 h before nebulized methacholine, FIG. 5
Method: (§1) Increase in airway resistance induced by methacoline was measured.
4 to 6 week old ICR mice received 1 mg/mL methacoline by nebulization over 20 seconds and this was repeated five times. After each administration of methacoline was completed, the airway resistance was measured by a snap shot technique. All the data were analyzed by using FlexiVent software.
(§2) One hour after administration, the mice received five exposures to nebulized methacoline by the above-mentioned method and the airway resistance at the time of each administration was measured.

[7] = Concentration in lung tissue after airway administration (Test Example 1); assay type: in vivo; conditions: ICR mice, airway administration 20 mg/kg, chiral HPLC
Method: The test samples were divided into 300 μL aliquots and subjected to ultrafiltration using an Amicon ultra-0.5 centrifugal filter.
The HPLC conditions were as follows.
Detector: Waters 2695 Alliance separation module and Waters 2996 photodiode array detector (manufactured by Waters Corporation)
Eluent: Solvent A (Water containing 0.1 M hexafluorophosphate)/Solvent B (acetonitrile)
Mobile Phase: 70% Solvent A/30% Solvent B
Measuring wavelength: 220 nm

ICR mice [8] = experiment: Effect on methacholine-induced airway constriction (2) (Test Example 3.2); assay type: in vivo; conditions: 3.8 μg/kg via the airway, 1 h before nebulized methacholine, FIG. 7
Method: as §1
4 to 6 week old ICR mice were anesthetized with chloral hydrate (500 mg/kg), a tracheostomy was performed, and a metal tube […] in diameter was inserted into the trachea.
The mice were mechanically ventilated at 150 respirations/minute with a displacement per one cycle of 8.7 mL/kg and a positive end-expiratory pressure of 2 to 3 cmH2O.
The mice were exposed to nebulized methacholine (5 mg/kg) for 20 seconds four times at intervals of 40 seconds to induce airway resistance by methacholine, and the airway resistance was measured by a snap shot technique.
as §2
The data were analyzed by using FlexiVent software.

[9] = target: T2, human M3 muscarinic receptor (hM3R) (Homo sapiens, UniProt P20309); experiment: Receptor binding ability (in vitro) (2), [3H]NMS competitive inhibition, hM3R (Test Example 2.2); conditions: Table 2 and FIG. 3, compared to (R)-mepenzolate bromide and the racemate
T2 construct: expressed in transfected cells; host or cells: CHO-K1 cells (membrane fraction)
T2 sequence (P20309 whole entry): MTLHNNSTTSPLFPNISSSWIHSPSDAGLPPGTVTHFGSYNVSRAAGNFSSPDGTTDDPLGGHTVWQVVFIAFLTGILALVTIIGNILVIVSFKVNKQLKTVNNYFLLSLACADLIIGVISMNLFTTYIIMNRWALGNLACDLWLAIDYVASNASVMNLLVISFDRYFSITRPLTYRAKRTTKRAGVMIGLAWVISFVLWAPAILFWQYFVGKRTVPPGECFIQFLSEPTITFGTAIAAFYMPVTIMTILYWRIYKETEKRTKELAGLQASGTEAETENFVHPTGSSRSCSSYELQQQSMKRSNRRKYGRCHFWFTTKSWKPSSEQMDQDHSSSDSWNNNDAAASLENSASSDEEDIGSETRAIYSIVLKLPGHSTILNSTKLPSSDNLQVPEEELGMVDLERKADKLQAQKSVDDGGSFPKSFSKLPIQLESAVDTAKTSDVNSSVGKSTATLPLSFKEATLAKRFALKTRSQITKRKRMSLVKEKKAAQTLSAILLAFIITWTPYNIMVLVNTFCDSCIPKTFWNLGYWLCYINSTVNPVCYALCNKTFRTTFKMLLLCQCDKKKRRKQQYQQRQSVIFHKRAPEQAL
Method: Membrane fractions of CHO—K1 cells overexpressing a human M3 muscarinic receptor (hM3R) or CHO—K1 cells overexpressing a human M2 muscarinic receptor (hM2R) were used to measure receptor binding ability by competitive inhibition assay with 1-[N-methyl-^3H]scopolamine methyl bromide ([^3H]NMS, specific activity: 85.5 Cimmol). The protein concentration of the cell membrane was 10.0 μg/well and the [^3H]NMS concentration was 2.0 nM.
A binding buffer (phosphate buffer/saline) was added to the reagents to make a total volume of 200 μL. […]
The resulting filter was dried for 30 minutes, and then, fixed to a solid scintillator, MeltiLex A (melt-on scintillation sheet; manufactured by PerkinElmer, Inc.). The radioactivity remaining on the filter was measured in a MicroBeta Trilux microplate scintillation counter (manufactured by PerkinElmer, Inc.).
An experimental IC50 was calculated by using an experimentally obtained constant (κd) of [^3H]NMS for hM3R or hM2R and the concentration thereof, and then, the affinity at equilibrium was determined as a competitive equilibrium dissociation constant (κi) value. In this regard, the κi value was calculated from three individual curves and modified by using Prism (produced by GraphPad Software, Inc.).

T1 sequence (P20309 whole entry): as above

C[N+]1(C)CCC[C@@H](OC(=O)C(O)(c2ccccc2)c2ccccc2)C1.[Br-] (racemic) [racemate, mepenzolate bromide, reference compound]
Inflammatory factors in BALF (TNF-α, MIP-2, MCP-1, KC) (ICR mice [1]): decreased inflammatory factors effectively
Neutrophil count in BALF (ICR mice [2]): similarly effective
Total cell count in BALF (ICR mice [2]): similarly effective
Total cell count in BALF (ICR mice [3]): effect of decreasing
Neutrophil count in BALF (ICR mice [3]): effect of decreasing
Binding to the M3 receptor (FIG. 1), in words [4]: bound strongly to the M3 receptor

C[N+]1(C)CCC[C@@H](OC(=O)C(O)(c2ccccc2)c2ccccc2)C1.[Br-] [R-form, (3R)-3-[(hydroxy) (diphenyl)acetoxy]-1,1-dimethylpiperidinium bromide]
Level of constipation occurrence (fecal pellet output) (ICR mice [5]): highest level of constipation occurrence
Inflammatory factors in BALF (TNF-α, MIP-2, MCP-1, KC) (ICR mice [1]): decreased inflammatory factors effectively
Neutrophil count in BALF (ICR mice [2]): relatively stronger effect of decreasing
Total cell count in BALF (ICR mice [2]): relatively stronger effect of decreasing
Effect of suppressing airway resistance (methacholine-induced) (ICR mice [6]): significant effect of suppressing airway resistance
Concentration in lung tissue, (R)-Mep, 5 min. ([7]; 5 min after administration, (R)-Mep detected): 44.5 ± 11.5 μg/lung
Concentration in lung tissue, (R)-Mep, 15 min. ([7]; 15 min after administration, (R)-Mep detected): 6.3 ± 4.2 μg/lung
Concentration in lung tissue, (R)-Mep, 30 min. ([7]; 30 min after administration, (R)-Mep detected): 5.1 ± 1.3 μg/lung
Total cell count in BALF (ICR mice [3]): effect of decreasing
Neutrophil count in BALF (ICR mice [3]): effect of decreasing
Effect of suppressing airway resistance (methacholine-induced), low dose (ICR mice [8]): significant effect of suppressing airway resistance
Binding to the M3 receptor (FIG. 1), in words [4]: bound strongly to the M3 receptor

C[N+]1(C)CCC[C@H](OC(=O)C(O)(c2ccccc2)c2ccccc2)C1.[Br-] [S-form, (3S)-3-[(hydroxy) (diphenyl)acetoxy]-1,1-dimethylpiperidinium bromide]
Level of constipation occurrence (fecal pellet output) (ICR mice [5]): low level of constipation occurrence
Affinity to hM3R (M3 receptor), in words [9]: lower affinity
Inflammatory factors in BALF (TNF-α, MIP-2, MCP-1, KC) (ICR mice [1]): decreased inflammatory factors effectively
Neutrophil count in BALF (ICR mice [2]): similarly effective
Total cell count in BALF (ICR mice [2]): similarly effective
Effect of suppressing airway resistance (methacholine-induced) (ICR mice [6]): little effect
Concentration in lung tissue, (S)-Mep, 5 min. ([7]; 5 min after administration, (S)-Mep detected): 36.4 ± 9.5 μg/lung
Concentration in lung tissue, (S)-Mep, 15 min. ([7]; 15 min after administration, (S)-Mep detected): 7.6 ± 0.5 μg/lung
Concentration in lung tissue, (S)-Mep, 30 min. ([7]; 30 min after administration, (S)-Mep detected): 6.2 ± 0.4 μg/lung
Total cell count in BALF (ICR mice [3]): effect of decreasing
Neutrophil count in BALF (ICR mice [3]): effect of decreasing
Effect of suppressing airway resistance (methacholine-induced), low dose (ICR mice [8]): little effect
Binding to the M3 receptor (FIG. 1), in words [4]: weaker binding ability
